Laboratory results as given in patent publication EP0113029B1, “Dicyclic hexapeptides, processes for their preparation and pharmaceutical compositions containing them” (Merck & Co., Inc., priority 1982, dated 1989).
Where two headings read alike, the source gives them in different places. Positions of bridges follow the written chain, without caps; N, C: chain ends. Non-standard residues stand in square brackets, D forms with d. Residues, ends and D or L forms follow the SMILES beside them.

Procedure: In order to stabilize the compound toward such decomposition it was treated in aqueous solution with 10-40 mole % of N-ethylmaleimide, a reagent which will react with free sulfhydryl groups that could catalyze disulfide interchange. The excess N-ethyl maleimide was separated by passage through a column of Sephadex° G-25 gel (superfine) eluted with 50% acetic acid.

C[C@@H](O)[C@@H]1NC(=O)[C@H](CCCCN)NC(=O)[C@@H](Cc2c[nH]c3ccccc23)NC(=O)[C@H](Cc2ccccc2)NC(=O)[C@@H]2CSSC[C@H](NC1=O)C(=O)N2 [Example 6] (cyclo(CCF[dW]KT); disulfide 1-2)
stability with respect to polymerization (after treatment in aqueous solution with 10-40 mole % of N-ethylmaleimide and reisolation): completely stable
stability with respect to polymerization (sample as isolated, in certain solvents or on extended storage): unstable with respect to polymerization
